Data published in patent publication US4308210A, “Nanaomycin B and therapeutic compositions containing same” (The Kitasato Institute, priority 1976, dated 1981).

Test system: Trichophyton verrucosum
Test: Treatment of dermatomycosis of cattle caused by mass infection
Assay type: in vivo
Set-up: key: +++: complete removal of scales and recovered; ++: a little scales remained; +: removal of a part of scales; -: no removal of scale and no recovery
Protocol: When dermatomycosis of cattle caused by mass infection of Trichophyton verrucosum is treated with nanaomycin B, nanaomycin B is dissolved or suspended in a suitable carrier, for example, olive oil, and is coated on the affected part directly with or without removal of the scales. […] The results obtained by coating nanaomycin B once and by twice coatings (the second coating is carried out a week after the first coating) are shown in tables 2 and 3, respectively.

[1] = coating once, I direct coating on affected part, 0.1 mg/ml
[2] = coating once, I direct coating on affected part, 1 mg/ml
[3] = coating once, I direct coating on affected part, 10 mg/ml
[4] = coating once, II coating after removing the scales, 0.1 mg/ml
[5] = coating once, II coating after removing the scales, 1 mg/ml
[6] = coating once, II coating after removing the scales, 10 mg/ml
[7] = twice coatings (second a week after the first), I direct coating on affected part, 0.1 mg/ml
[8] = twice coatings (second a week after the first), I direct coating on affected part, 1 mg/ml
[9] = twice coatings (second a week after the first), I direct coating on affected part, 10 mg/ml
[10] = twice coatings (second a week after the first), II coating after removing the scales, 0.1 mg/ml
[11] = twice coatings (second a week after the first), II coating after removing the scales, 1 mg/ml
[12] = twice coatings (second a week after the first), II coating after removing the scales, 10 mg/ml

## CC1OC(CC(=O)O)CC2C(=O)c3cccc(O)c3C(=O)C12O (stereo not drawn) [Nanaomycin B]
[1]
  Result after 1 week: ++
  Result after 2 weeks: ++
  Result after 3 weeks: +++
  Result after 4 weeks: +++
[2]
  Result after 1 week: +++
  Result after 2 weeks: +++
  Result after 3 weeks: +++
  Result after 4 weeks: +++
[3]
  Result after 1 week: +++
  Result after 2 weeks: +++
  Result after 3 weeks: +++
  Result after 4 weeks: +++
[4]
  Result after 1 week: +++
  Result after 2 weeks: +++
  Result after 3 weeks: +++
  Result after 4 weeks: +++
[5]
  Result after 1 week: +++
  Result after 2 weeks: +++
  Result after 3 weeks: +++
  Result after 4 weeks: +++
[6]
  Result after 1 week: +++
  Result after 2 weeks: +++
  Result after 3 weeks: +++
  Result after 4 weeks: +++
[7]
  Result after 1 week: ++
  Result after 2 weeks: +++
  Result after 3 weeks: +++
  Result after 4 weeks: +++
[8]
  Result after 1 week: ++
  Result after 2 weeks: ++
  Result after 3 weeks: +++
  Result after 4 weeks: +++
[9]
  Result after 1 week: +++
  Result after 2 weeks: +++
  Result after 3 weeks: +++
  Result after 4 weeks: +++
[10]
  Result after 1 week: +++
  Result after 2 weeks: +++
  Result after 3 weeks: +++
  Result after 4 weeks: +++
[11]
  Result after 1 week: +++
  Result after 2 weeks: +++
  Result after 3 weeks: +++
  Result after 4 weeks: +++
[12]
  Result after 1 week: +++
  Result after 2 weeks: +++
  Result after 3 weeks: +++
  Result after 4 weeks: +++
